The target of one assay is T1, alpha-1A adrenoceptor (Homo sapiens, UniProt P35348).
T1 construct: expressed in transfected cells; host or cells: CHO-K1
T1 sequence (P35348 1-466): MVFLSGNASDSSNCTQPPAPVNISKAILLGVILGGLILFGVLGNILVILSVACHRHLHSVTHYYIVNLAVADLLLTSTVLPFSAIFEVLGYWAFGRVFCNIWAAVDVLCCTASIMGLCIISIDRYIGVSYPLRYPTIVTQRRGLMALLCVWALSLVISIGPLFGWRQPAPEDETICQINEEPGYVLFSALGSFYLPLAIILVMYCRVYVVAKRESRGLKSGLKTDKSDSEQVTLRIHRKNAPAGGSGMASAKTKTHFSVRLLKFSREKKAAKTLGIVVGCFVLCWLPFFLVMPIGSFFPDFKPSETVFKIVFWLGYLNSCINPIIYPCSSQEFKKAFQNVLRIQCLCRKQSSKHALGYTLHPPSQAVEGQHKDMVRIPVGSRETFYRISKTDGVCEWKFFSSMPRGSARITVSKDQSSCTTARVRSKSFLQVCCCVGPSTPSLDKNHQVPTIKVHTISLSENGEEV
Briefly: [3H]prazosin binding (alpha1-adrenoceptor) assay, alpha-1A. The following applies: membranes of transfected CHO-KI cells, read-out: affinity towards the alpha-1A adrenoceptor (pKi) (converted). As to the method: (§1) Alpha1A, alpha1B, and alpha1D adrenoceptor transfected CHO-KI cells, prepared using the methods described by Chang et al., FEBS Lett. 1998, 422:279-283, were grown to confluence in T-162 tissue culture flasks in Ham's F-12 culture medium supplemented with 10% fetal bovine serum, geneticin (150 µg/mL) and streptomycin/penicillin (30 µg/mL/30 µg/mL) at 37 °C in 7% CO2. Cells were harvested by incubating with phosphate-buffered saline (PBS) containing 30 µM EDTA for 5-10 min at 37 °C. Cells were pelleted by centrifuging at 500 x g for 5 min, and the pelleted cells were homogenized (Polytron homogenizer) in 10 vols (w/v) of 50 mM Tris, 1 mM EDTA, (homogenisation buffer, pH 7.4 at 4 °C). The homogenate was centrifuged at 45,000 x g for 20 min. The pellet was resuspended in the homogenizing buffer and rehomogenized. The resulting homogenate was centrifuged at 45,000 x g for 20 min. The pellet was resuspended in 50 mM Tris buffer (pH 7.4 at 4 °C), aliquoted, frozen, and stored at -80 °C for further use.
(§2) The membranes were thawed at room temperature and diluted in assay buffer (50 mM Tris buffer at […]) at 37 °C and homogenized using the Polytron tissue disrupter. The membranes were incubated with the radioligand ([^3H]prazosin, NEN, 0.1 - 0.5 nM) and test compound at 37 °C for 30 min. The membranes were then filtered over polyethyleneimine-treated GF/B unifilter plates using a Packard Filtermate Harvester and washed with ice-cold 50 mM Tris-HCl, 1 mM EDTA buffer (3 x 3 sec. washes). Scintillation cocktail was added to the filter plates and bound radioligand determined by liquid scintillation spectrophotometry.
(§3) For each experiment, total binding (in the absence of any test or reference compounds) and non-specific binding (10 µM phentolamine) were determined. For each sample tested, the concentration producing 50% inhibition of binding (IC50) and Hill Slope (nH) was determined using iterative non-linear curve fitting techniques with Kaleidagraph (Synergy Software) or other appropriate software. If the radioligand KD was known, the inhibition dissociation constant (K1) of each ligand was determined according to the method of Cheng and Prusoff (Cheng, Y-C. and Prusoff, W.H., Biochem. Pharmacol., 1973, 22, 3099-3108).

A further assay addresses T2, alpha-1D adrenoceptor (Homo sapiens, UniProt P25100).
T2 construct: expressed in transfected cells; host or cells: CHO-K1
T2 sequence (P25100 1-572): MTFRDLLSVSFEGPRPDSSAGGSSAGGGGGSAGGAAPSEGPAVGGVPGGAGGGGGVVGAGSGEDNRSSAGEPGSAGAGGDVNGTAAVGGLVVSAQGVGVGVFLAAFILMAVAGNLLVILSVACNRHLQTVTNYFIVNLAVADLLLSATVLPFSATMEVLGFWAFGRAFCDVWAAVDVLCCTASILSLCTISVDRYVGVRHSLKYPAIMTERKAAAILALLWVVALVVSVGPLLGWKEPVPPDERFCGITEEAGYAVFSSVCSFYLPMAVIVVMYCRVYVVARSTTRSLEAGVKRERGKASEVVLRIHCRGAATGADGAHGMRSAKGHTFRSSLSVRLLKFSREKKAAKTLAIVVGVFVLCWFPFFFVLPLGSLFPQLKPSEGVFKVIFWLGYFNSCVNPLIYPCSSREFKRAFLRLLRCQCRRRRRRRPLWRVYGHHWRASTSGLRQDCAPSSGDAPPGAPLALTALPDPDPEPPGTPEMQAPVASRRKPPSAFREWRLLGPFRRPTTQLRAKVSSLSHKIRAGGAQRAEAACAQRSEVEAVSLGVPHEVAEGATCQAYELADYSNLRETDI
Nature of the assay: [3H]prazosin binding (alpha1-adrenoceptor) assay, alpha-1D. The following applies: membranes of transfected CHO-KI cells, read-out: affinity towards the alpha-1D adrenoceptor (pKi) (converted). As to the method: as §1, §2, §3

A further assay deals with T3, alpha-1B adrenoceptor (Homo sapiens, UniProt P35368).
T3 construct: expressed in transfected cells; host or cells: CHO-K1
T3 sequence (P35368 1-520): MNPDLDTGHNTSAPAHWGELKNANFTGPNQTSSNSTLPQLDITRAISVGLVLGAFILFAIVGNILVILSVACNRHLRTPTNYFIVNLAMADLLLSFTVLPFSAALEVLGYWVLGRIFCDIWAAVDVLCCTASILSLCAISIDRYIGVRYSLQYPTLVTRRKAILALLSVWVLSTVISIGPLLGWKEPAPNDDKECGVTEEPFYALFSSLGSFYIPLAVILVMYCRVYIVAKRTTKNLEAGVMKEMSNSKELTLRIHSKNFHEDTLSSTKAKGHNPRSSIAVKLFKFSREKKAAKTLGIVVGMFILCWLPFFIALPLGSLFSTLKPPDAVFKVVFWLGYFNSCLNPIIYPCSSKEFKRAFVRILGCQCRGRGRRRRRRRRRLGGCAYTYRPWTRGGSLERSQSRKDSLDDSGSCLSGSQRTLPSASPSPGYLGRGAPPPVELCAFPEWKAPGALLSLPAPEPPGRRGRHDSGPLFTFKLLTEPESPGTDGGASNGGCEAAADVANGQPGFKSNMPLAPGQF
Nature of the assay: [3H]prazosin binding (alpha1-adrenoceptor) assay, alpha-1B. The following applies: membranes of transfected CHO-KI cells, read-out: affinity towards the alpha-1B adrenoceptor (pKi) (converted). As to the method:
as §1, §2, §3

Take `COc1cc2[nH]c(N3CCc4cc(O)c(O)cc4C3C)nc(=O)c2cc1OC` (stereo not drawn) [Compound 142, 2-(6,7-dihydroxy-1-methyl-3,4-dihydro-1H-isoquinolin-2-yl)-6,7-dimethoxy-1H-quinazolin-4-one]: the Ki is 219 nM at alpha-1A adrenoceptor, 38900 nM at alpha-1D adrenoceptor and 955 nM at alpha-1B adrenoceptor.

On to `COc1cc2nc(N3CCc4c(ncnc4Nc4cccc(C)n4)C3)[nH]c(=O)c2cc1OC` [Compound 208, 6,7-dimethoxy-2-[4-(6-methyl-pyridin-2-ylamino)-5,8-dihydro-6H-pyrido[3,4-d]pyrimidin-7-yl]-3H-quinazolin-4-one], for which the Ki is 3.8 nM at alpha-1A adrenoceptor, 182 nM on alpha-1D adrenoceptor and 13.2 nM on alpha-1B adrenoceptor.

For the compound `COc1cc2c(cc1OC)S(=O)(=O)NC(N1CCc3c(ncnc3N3CCOCC3)C1)=N2` [Compound 102, 6,7-dimethoxy-3-(4-morpholin-4-yl-5,8-dihydro-6H-pyrido[3,4d]pyrimidin-7-yl)-2H-benzo[1,2,4]thiadiazine-1,1-dioxide], the Ki at alpha-1A adrenoceptor was 15.8 nM; at alpha-1D adrenoceptor, 339 nM; on alpha-1B adrenoceptor it was 31.6 nM.

With `COc1cc2[nH]c(N3CCn4c(cnc4-c4ccccc4)C3)nc(=O)c2cc1OC` [Compound 302, 6,7-dimethoxy-2-(3-phenyl-5,6-dihydro-8H-imidazo[1,5-a]pyrazin-7-yl)-1H-quinazolin-4-one], the Ki at alpha-1A adrenoceptor is 0.912 nM; on alpha-1D adrenoceptor, 6.17 nM; on alpha-1B adrenoceptor, 0.832 nM.

On to `COc1ccc(-n2cnc3c2CCN(c2nc4cc(OC)c(OC)cc4c(=O)[nH]2)C3)cc1` [Compound 608, 6,7-dimethoxy-2-[1-(4-methoxy-phenyl)-1,4,6,7-tetrahydro-imidazo[4,5-c]pyridin-5-yl]-3H-quinazolin-4-one], for which the Ki on alpha-1A adrenoceptor was 2.75 nM; on alpha-1D adrenoceptor, 83.2 nM; at alpha-1B adrenoceptor, 5.89 nM.

For `COc1cc2[nH]c(N3CCc4ccncc4C3)nc(=O)c2cc1OC` [Compound 147, 2-(3,4-dihydro-1H-[2,7]naphthyridin-2-yl)-6,7-dimethoxy-1H-quinazolin-4-one], the Ki on alpha-1A adrenoceptor is 5.5 nM; on alpha-1D adrenoceptor, 468 nM; at alpha-1B adrenoceptor, 41.7 nM.

Regarding `COc1cc2[nH]c(N3CCc4c(ncn4C4CCCCC4)C3)nc(=O)c2cc1OC` [Compound 619, 2-(1-cyclohexyl-1,4,6,7-tetrahydro-imidazo[4,5-c]pyridin-5-yl)-6,7-dimethoxy-1H-quinazolin-4-one], the Ki at alpha-1A adrenoceptor is 3.72 nM; at alpha-1D adrenoceptor, 81.3 nM; on alpha-1B adrenoceptor, 7.59 nM.

On to `COCCN(C)c1ncnc2c1CCN(c1nc3cc(OC)c(OC)cc3c(=O)[nH]1)C2` [Compound 205], for which the Ki on alpha-1A adrenoceptor was 6.17 nM; at alpha-1D adrenoceptor, 407 nM; on alpha-1B adrenoceptor it was 5.01 nM.

For `COc1cc2nc(N3CCc4c([nH]c5ccccc45)C3)[nH]c(=O)c2cc1OC` [Compound 143, 6,7-dimethoxy-2-(1,3,4,9-tetrahydro-β-carbolin-2-yl)-3H-quinazolin-4-one], the Ki was 0.479 nM on alpha-1A adrenoceptor, 20.9 nM on alpha-1D adrenoceptor and 1.1 nM on alpha-1B adrenoceptor.

As for `COc1cc2nc(N3CCc4ccc(S(=O)(=O)N5CCOCC5)cc4C3)[nH]c(=O)c2cc1OC` [Compound 404, 6,7-dimethoxy-2-[7-(morpholine-4-sulfonyl)-3,4-dihydro-1H-isoquinolin-2-yl]-3H-quinazolin-4-one], the Ki at alpha-1A adrenoceptor was 8.13 nM; on alpha-1D adrenoceptor, 275 nM; on alpha-1B adrenoceptor, 63.1 nM.

As to `COc1cc2nc(N3CCc4c(cccc4NC4=NCCC4)C3)[nH]c(=O)c2cc1OC` [Compound 810, 2-[5-(4,5-dihydro-3H-pyrrol-2-ylamino)-3,4-dihydro-1H-isoquinolin-2-yl]-6,7-dimethoxy-3H-quinazolin-4-one], the Ki on alpha-1A adrenoceptor is 9.55 nM; at alpha-1D adrenoceptor, 398 nM; at alpha-1B adrenoceptor, 6.61 nM.

Regarding `COc1cc2nc(N3CCc4c(ncn4Cc4ccccc4)C3)[nH]c(=O)c2cc1OC` [Compound 501, 2-(1-benzyl-1,4,6,7-tetrahydro-imidazo[4,5-c]pyridin-5-yl)-6,7-dimethoxy-3H-quinazolin-4-one], the Ki was 3.39 nM at alpha-1A adrenoceptor, 347 nM at alpha-1D adrenoceptor and 20 nM on alpha-1B adrenoceptor.

Consider `COc1cc2nc(N3CCc4c(ncn4-c4ccccc4)C3)[nH]c(=O)c2cc1OC` [Compound 602, 6,7-dimethoxy-2-(1-phenyl-1,4,6,7-tetrahydro-imidazo[4,5-c]pyridin-5-yl)-3H-quinazolin-4-one], for which the Ki on alpha-1A adrenoceptor is 0.832 nM; at alpha-1D adrenoceptor, 37.2 nM; on alpha-1B adrenoceptor it was 4.27 nM.

In the case of `COc1cc2nc(N3CCc4c(cccc4S(=O)(=O)N4CCN(C)CC4)C3)[nH]c(=O)c2cc1OC` [Compound 401, 6,7-dimethoxy-2-[5-(4-methyl-piperazine-1-sulfonyl)-3,4-dihydro-1H-isoquinolin-2-yl]-3H-quinazolin-4-one], the Ki at alpha-1A adrenoceptor was 15.1 nM; on alpha-1D adrenoceptor, 1170 nM; on alpha-1B adrenoceptor, 52.5 nM.

Consider `COc1cc2nc(N3CCc4c(cccc4-c4cccnc4)C3)[nH]c(=O)c2cc1OC` [Compound 112, 6,7-dimethoxy-2-(5-pyridin-3-yl-3,4-dihydro-1H-isoquinolin-2-yl)-3H-quinazolin-4-one], for which the Ki at alpha-1A adrenoceptor was 1.17 nM; at alpha-1D adrenoceptor it was 132 nM; at alpha-1B adrenoceptor, 2.04 nM.

For the compound `COc1cc2[nH]c(N3CCn4c(cnc4N4CCOCC4)C3)nc(=O)c2cc1OC` [Compound 307, 6,7-dimethoxy-2-(3-morpholin-4-yl-5,6-dihydro-8H-imidazo[1,5-α]pyrazin-7-yl)-1H-quinazolin-4-one], the Ki was 7.76 nM on alpha-1A adrenoceptor, 123 nM on alpha-1D adrenoceptor and 17.4 nM on alpha-1B adrenoceptor.

With `COc1cc2[nH]c(N3CCc4c(cccc4N4CCOCC4)C3)nc(=O)c2cc1OC` [Compound 131, 6,7-dimethoxy-2-(5-morpholin-4-yl-3,4-dihydro-1H-isoquinolin-2-yl)-1H-quinazolin-4-one], the Ki on alpha-1A adrenoceptor is 89.1 nM; on alpha-1D adrenoceptor it was 955 nM; on alpha-1B adrenoceptor, 39.8 nM.

The record behind these values is EP1363899B1, “QUINAZOLONE DERIVATIVES AS ALPHA 1A/B ADRENERGIC RECEPTOR ANTAGONISTS” (F.HOFFMANN-LA ROCHE AG, priority 2001, dated 2002).
